Laboratory results as given in ChEMBL document CHEMBL5291721, “A preclinical secondary pharmacology resource illuminates target-adverse drug reaction associations of marketed drugs” (Nat Commun, 2023).

Key:
Estrogen receptor = target: T1, Estrogen receptor (Homo sapiens, UniProt P03372)
T1 sequence (P03372 whole entry): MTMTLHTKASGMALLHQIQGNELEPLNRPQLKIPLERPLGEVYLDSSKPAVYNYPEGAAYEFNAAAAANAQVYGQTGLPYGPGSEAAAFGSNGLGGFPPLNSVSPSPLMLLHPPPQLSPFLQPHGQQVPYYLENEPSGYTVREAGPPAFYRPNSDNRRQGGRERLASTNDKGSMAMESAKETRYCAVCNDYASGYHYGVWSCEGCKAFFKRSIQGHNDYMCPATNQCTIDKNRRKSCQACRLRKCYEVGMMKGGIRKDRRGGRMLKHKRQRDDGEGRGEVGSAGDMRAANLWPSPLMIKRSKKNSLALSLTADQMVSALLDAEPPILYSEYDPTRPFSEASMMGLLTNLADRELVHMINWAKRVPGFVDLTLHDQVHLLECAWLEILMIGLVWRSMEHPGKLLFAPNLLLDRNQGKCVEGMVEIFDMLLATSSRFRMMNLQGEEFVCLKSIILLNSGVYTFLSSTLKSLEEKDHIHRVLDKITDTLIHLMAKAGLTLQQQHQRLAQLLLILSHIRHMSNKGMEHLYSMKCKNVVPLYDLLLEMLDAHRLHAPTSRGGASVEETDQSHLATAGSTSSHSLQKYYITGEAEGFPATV

D(3) dopamine receptor = D(3) dopamine receptor (Homo sapiens, UniProt P35462)
[1] = target: T2, Alpha-1A adrenergic receptor (Homo sapiens, UniProt P35348); assay type: functional, cell-based
T2 sequence (P35348 whole entry): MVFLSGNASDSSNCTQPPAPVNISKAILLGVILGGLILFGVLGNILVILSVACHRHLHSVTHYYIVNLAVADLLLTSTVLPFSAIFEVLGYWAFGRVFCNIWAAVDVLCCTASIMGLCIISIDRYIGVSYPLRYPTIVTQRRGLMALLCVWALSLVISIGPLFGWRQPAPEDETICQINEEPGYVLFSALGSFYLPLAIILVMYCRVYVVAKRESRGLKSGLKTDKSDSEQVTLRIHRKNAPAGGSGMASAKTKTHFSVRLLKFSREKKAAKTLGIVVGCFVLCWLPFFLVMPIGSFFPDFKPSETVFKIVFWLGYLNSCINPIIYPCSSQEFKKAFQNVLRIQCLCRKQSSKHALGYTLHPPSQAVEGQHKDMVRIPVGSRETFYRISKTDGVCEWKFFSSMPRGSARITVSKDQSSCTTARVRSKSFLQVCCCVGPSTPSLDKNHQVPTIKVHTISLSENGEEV

[2] = target: T3, 5-hydroxytryptamine receptor 1A (Homo sapiens, UniProt P08908); assay type: functional, cell-based
T3 sequence (P08908 whole entry): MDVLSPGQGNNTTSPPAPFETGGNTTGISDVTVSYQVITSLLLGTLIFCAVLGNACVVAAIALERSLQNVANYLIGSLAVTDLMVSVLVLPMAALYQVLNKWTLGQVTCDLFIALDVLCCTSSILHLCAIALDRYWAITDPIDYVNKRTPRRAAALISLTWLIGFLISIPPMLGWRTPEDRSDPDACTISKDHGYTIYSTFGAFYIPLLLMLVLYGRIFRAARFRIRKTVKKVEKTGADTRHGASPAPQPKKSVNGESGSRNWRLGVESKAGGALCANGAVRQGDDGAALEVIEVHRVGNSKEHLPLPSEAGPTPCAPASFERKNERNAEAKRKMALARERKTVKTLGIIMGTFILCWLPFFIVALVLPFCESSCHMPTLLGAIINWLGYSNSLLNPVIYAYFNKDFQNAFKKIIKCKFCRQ

Adenosine receptor A3 = target: T4, Adenosine receptor A3 (Homo sapiens, UniProt P0DMS8)
T4 sequence (P0DMS8 whole entry): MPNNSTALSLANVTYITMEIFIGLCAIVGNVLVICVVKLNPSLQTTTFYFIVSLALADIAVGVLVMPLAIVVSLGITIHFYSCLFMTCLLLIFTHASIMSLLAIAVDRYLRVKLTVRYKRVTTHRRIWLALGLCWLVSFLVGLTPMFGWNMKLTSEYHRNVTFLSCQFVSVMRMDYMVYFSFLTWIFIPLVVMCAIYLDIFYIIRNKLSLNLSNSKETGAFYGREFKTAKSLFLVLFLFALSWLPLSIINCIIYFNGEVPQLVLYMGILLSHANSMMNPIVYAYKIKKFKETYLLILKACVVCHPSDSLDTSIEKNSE

[3] = target: T5, 5-hydroxytryptamine receptor 3A (Homo sapiens, UniProt P46098); assay type: functional
T5 sequence (P46098 whole entry): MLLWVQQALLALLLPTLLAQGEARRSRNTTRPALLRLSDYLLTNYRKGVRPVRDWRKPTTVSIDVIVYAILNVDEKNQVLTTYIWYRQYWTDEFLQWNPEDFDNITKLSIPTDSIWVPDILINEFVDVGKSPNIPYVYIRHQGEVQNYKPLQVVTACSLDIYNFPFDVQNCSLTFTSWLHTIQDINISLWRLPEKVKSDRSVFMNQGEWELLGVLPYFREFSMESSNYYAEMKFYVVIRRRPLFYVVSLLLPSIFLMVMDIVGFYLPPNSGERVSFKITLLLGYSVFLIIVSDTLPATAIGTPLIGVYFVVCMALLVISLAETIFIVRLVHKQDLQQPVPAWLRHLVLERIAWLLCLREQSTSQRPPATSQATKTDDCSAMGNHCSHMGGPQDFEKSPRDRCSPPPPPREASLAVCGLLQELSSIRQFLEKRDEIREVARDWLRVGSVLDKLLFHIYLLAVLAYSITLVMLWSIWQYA

[4] = target: Kappa-type opioid receptor (Homo sapiens, UniProt P41145)
[5] = target: Glutamate receptor ionotropic, NMDA 1 (Rattus norvegicus, UniProt P35439)
[6] = target: Sodium-dependent dopamine transporter (Homo sapiens, UniProt Q01959)
Histamine H1 receptor = Histamine H1 receptor (Homo sapiens, UniProt P35367)
Histamine H3 receptor = Histamine H3 receptor (Homo sapiens, UniProt Q9Y5N1)
[7] = target: 5-hydroxytryptamine receptor 2B (Homo sapiens, UniProt P41595); assay type: functional, cell-based
[8] = target: Muscarinic acetylcholine receptor M3 (Homo sapiens, UniProt P20309)
Further: assay procedure not described here.

Sequence of 5-hydroxytryptamine receptor 2B (P41595 whole entry): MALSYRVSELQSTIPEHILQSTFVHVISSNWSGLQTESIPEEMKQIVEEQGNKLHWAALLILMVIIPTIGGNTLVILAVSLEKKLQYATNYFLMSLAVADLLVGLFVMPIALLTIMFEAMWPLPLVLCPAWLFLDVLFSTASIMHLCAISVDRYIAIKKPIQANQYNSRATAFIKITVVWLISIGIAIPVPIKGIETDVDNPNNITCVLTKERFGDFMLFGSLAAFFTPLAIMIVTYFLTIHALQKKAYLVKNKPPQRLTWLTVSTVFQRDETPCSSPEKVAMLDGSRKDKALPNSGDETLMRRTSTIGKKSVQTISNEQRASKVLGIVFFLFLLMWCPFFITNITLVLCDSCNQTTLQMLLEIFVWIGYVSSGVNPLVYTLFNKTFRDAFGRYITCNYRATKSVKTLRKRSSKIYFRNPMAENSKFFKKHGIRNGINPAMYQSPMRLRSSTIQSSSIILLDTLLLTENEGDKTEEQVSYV
Sequence of Kappa-type opioid receptor (P41145 whole entry): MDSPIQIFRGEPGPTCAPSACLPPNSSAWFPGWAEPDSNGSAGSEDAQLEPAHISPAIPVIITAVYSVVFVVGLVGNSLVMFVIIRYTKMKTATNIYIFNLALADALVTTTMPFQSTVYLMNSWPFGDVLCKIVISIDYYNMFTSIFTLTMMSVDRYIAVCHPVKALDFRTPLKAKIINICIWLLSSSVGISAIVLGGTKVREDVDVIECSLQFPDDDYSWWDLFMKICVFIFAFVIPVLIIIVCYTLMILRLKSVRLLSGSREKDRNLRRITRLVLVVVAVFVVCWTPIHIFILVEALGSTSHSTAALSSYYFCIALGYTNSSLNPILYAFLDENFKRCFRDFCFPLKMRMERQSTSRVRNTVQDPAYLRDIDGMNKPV
Sequence of Histamine H3 receptor (Q9Y5N1 whole entry): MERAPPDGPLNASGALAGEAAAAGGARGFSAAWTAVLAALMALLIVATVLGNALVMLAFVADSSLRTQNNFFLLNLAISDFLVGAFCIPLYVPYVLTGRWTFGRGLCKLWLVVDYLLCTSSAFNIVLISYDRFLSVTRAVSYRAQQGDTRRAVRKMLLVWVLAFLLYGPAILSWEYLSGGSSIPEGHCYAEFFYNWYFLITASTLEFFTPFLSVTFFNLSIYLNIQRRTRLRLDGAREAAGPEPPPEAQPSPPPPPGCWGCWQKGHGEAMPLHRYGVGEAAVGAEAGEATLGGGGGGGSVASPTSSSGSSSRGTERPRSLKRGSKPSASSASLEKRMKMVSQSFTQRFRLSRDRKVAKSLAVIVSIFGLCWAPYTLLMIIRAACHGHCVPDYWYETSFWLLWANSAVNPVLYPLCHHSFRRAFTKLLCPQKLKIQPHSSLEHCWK
Sequence of Histamine H1 receptor (P35367 whole entry): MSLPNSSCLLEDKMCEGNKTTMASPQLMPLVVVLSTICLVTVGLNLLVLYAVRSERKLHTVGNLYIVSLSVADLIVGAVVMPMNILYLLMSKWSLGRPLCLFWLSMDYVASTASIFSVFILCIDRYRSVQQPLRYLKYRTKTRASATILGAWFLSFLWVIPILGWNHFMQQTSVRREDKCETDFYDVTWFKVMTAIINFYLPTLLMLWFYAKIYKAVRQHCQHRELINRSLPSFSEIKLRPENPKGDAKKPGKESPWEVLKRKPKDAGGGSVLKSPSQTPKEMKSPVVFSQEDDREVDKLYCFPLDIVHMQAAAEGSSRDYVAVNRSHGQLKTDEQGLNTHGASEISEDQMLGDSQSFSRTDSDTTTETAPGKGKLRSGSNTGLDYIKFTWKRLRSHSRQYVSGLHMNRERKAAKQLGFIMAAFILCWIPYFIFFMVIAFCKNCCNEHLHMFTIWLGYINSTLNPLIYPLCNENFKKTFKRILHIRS
Sequence of Sodium-dependent dopamine transporter (Q01959 whole entry): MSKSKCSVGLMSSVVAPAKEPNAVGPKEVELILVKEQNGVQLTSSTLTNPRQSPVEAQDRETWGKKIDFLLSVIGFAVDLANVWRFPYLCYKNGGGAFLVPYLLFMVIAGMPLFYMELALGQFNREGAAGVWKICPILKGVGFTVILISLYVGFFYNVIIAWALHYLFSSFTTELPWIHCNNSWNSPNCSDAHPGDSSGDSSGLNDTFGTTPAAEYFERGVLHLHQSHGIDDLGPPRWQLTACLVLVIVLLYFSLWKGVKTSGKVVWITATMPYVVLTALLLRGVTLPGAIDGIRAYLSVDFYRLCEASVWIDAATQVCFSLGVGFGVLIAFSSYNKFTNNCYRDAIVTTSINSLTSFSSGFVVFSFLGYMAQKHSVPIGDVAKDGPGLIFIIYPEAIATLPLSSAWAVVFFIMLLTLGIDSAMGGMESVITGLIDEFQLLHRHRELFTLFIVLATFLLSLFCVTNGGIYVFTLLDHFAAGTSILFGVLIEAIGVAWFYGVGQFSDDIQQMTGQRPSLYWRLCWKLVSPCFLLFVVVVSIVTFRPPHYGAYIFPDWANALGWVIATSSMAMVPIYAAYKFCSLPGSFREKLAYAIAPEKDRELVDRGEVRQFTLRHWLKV
Sequence of D(3) dopamine receptor (P35462 whole entry): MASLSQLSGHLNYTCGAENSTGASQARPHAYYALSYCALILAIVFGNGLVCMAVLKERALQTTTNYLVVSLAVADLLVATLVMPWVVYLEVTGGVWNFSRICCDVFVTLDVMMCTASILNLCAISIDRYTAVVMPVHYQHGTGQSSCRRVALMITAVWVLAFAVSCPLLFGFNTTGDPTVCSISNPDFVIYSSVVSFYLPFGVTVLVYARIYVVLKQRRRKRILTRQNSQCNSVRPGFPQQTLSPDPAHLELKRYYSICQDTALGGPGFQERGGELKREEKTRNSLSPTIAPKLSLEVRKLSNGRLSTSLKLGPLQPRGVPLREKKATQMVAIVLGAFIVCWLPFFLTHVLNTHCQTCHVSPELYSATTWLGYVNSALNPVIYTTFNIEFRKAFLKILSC
Sequence of Muscarinic acetylcholine receptor M3 (P20309 whole entry): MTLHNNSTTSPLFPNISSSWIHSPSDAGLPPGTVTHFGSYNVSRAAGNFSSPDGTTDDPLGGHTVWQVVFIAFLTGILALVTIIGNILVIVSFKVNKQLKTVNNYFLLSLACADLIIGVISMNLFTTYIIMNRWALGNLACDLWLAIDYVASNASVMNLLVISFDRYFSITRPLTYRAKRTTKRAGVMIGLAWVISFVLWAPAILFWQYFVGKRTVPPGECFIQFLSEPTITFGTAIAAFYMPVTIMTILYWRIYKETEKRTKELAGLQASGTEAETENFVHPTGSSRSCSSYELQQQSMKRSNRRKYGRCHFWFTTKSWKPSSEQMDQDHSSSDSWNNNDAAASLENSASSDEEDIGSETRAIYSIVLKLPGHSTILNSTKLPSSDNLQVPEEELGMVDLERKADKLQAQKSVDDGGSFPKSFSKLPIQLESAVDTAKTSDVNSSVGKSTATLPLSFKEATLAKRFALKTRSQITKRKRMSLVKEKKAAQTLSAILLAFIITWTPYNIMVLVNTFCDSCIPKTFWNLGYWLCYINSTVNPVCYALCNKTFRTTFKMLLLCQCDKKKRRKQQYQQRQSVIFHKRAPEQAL

Row | SMILES | AC50 (Estrogen receptor) | AC50 (D(3) dopamine receptor) | AC50 [1] | AC50 [2] | AC50 (Adenosine receptor A3) | AC50 [3] | AC50 [4] | AC50 [5] | AC50 [6] | AC50 (Histamine H1 receptor) | AC50 (Histamine H3 receptor) | AC50 [7] | AC50 [8]
1 | Cc1cc2c(cc1S(N)(=O)=O)S(=O)(=O)CCC2 | > 30 µM | > 30 µM | > 30 µM | – | – | – | – | – | – | – | – | – | –
2 | C[C@H](N[C@@H](CCc1ccccc1)C(=O)O)C(=O)N1Cc2ccccc2C[C@H]1C(=O)O | > 30 µM | > 30 µM | > 30 µM | – | – | – | – | – | – | – | – | – | –
3 | O=C(O)[C@@H]1C[C@@H](O)CN1 | > 30 µM | – | > 30 µM | – | – | – | – | – | – | – | – | – | –
4 | CN(C)Cc1nnc2n1-c1ccc(Cl)cc1C(c1ccccc1)=NC2 [ADINAZOLAM] | – | – | – | > 10 µM | > 10 µM | > 30 µM | 3.29 µM | > 10 µM | > 10 µM | > 10 µM | > 10 µM | > 10 µM | –
5 | CCOC(=O)c1ccc(N)cc1 [BENZOCAINE] | – | – | – | > 10 µM | > 10 µM | > 30 µM | > 10 µM | > 10 µM | > 10 µM | – | > 10 µM | > 10 µM | –
6 | CC(C)(Oc1ccc(CCNC(=O)c2ccc(Cl)cc2)cc1)C(=O)O [BEZAFIBRATE] | – | – | – | > 30 µM | > 10 µM | > 30 µM | > 10 µM | > 10 µM | > 10 µM | – | > 10 µM | > 10 µM | –
7 | C[C@H](CCC(=O)O)[C@H]1CC[C@H]2[C@@H]3[C@H](O)C[C@@H]4C[C@H](O)CC[C@]4(C)[C@H]3C[C@H](O)[C@]12C [CHOLIC ACID] | > 30 µM | – | > 30 µM | – | – | – | – | – | – | – | – | – | –
8 | Cc1cn([C@H]2O[C@@H](CO)[C@H](O)[C@H]2F)c(=O)[nH]c1=O [CLEVUDINE] | – | > 30 µM | > 30 µM | – | – | – | – | – | – | – | – | – | –
9 | CC(=O)O[C@]1(C(C)=O)CC[C@H]2[C@@H]3C=C(Cl)C4=CC(=O)[C@@H]5C[C@@H]5[C@]4(C)[C@H]3CC[C@@]21C [CYPROTERONE ACETATE] | – | > 30 µM | > 3 µM | – | > 30 µM | > 30 µM | > 10 µM | > 10 µM | > 30 µM | – | > 10 µM | – | –
10 | CC(=O)[C@H]1CC[C@H]2[C@@H]3C=CC4=CC(=O)CC[C@@]4(C)[C@@H]3CC[C@]12C [DYDROGESTERONE] | – | > 30 µM | 29.2 µM | – | – | – | – | – | – | – | – | – | –
11 | CN[C@]1(c2ccccc2Cl)CCCCC1=O [ESKETAMINE] | – | – | – | – | > 30 µM | > 30 µM | 13 µM | 0.79 µM | > 30 µM | – | > 30 µM | > 30 µM | –
12 | CC(O)(P(=O)(O)O)P(=O)(O)O [ETIDRONIC ACID] | – | > 30 µM | > 30 µM | – | – | – | – | – | – | – | – | – | –
13 | C[C@@H]1C[C@H]2[C@@H]3C[C@H](F)C4=CC(=O)C=C[C@]4(C)[C@@]3(F)[C@@H](O)C[C@]2(C)[C@@]1(OC(=O)c1ccco1)C(=O)SCF [FLUTICASONE FUROATE] | – | > 30 µM | > 30 µM | > 10 µM | > 10 µM | > 30 µM | > 10 µM | > 10 µM | > 10 µM | > 10 µM | – | > 10 µM | > 30 µM
14 | CC(=O)OCC(=O)[C@@]1(O)CC[C@H]2[C@@H]3CCC4=CC(=O)CC[C@]4(C)[C@H]3[C@@H](O)C[C@@]21C [HYDROCORTISONE ACETATE] | – | – | > 30 µM | – | – | – | – | – | – | – | – | – | –
15 | CCOC(=O)C1=C(C)NC(C)=C(C(=O)OCC)C1c1ccccc1/C=C/C(=O)OC(C)(C)C [LACIDIPINE] | – | – | – | – | 15 µM | > 30 µM | 8.6 µM | > 30 µM | > 30 µM | – | > 30 µM | > 30 µM | –
16 | COc1ccc(OC)c(C(O)C(C)N)c1 (stereo not given) [METHOXAMINE] | > 30 µM | > 30 µM | – | – | – | – | – | – | – | – | – | – | –
17 | Cc1ccccc1N1C(=O)c2cc(S(N)(=O)=O)c(Cl)cc2NC1C (stereo not given) [METOLAZONE] | – | – | – | > 10 µM | > 10 µM | > 30 µM | > 10 µM | > 10 µM | > 10 µM | – | – | > 10 µM | –
18 | O=C(O)c1cccnc1Nc1cccc(C(F)(F)F)c1 [NIFLUMIC ACID] | – | – | – | > 10 µM | > 10 µM | > 30 µM | > 10 µM | > 10 µM | > 10 µM | – | – | > 10 µM | –
19 | COc1cccc(C(=O)CCN[C@@H](C)[C@H](O)c2ccccc2)c1 [OXYFEDRINE] | – | 0.382 µM | 0.205 µM | – | – | – | – | – | – | – | – | – | –
20 | O=C1c2ccccc2C(=O)C1c1ccccc1 [PHENINDIONE] | – | – | – | > 30 µM | > 10 µM | > 30 µM | > 10 µM | > 10 µM | > 10 µM | – | > 10 µM | 18 µM | –
21 | CN[C@@H](C)[C@@H](O)c1ccccc1 [PSEUDOEPHEDRINE] | – | – | – | > 10 µM | > 30 µM | > 30 µM | > 10 µM | > 10 µM | > 10 µM | > 10 µM | > 10 µM | > 10 µM | > 10 µM
22 | COC(=O)[C@H]1[C@H]2C[C@@H]3c4[nH]c5cc(OC)ccc5c4CCN3C[C@H]2C[C@@H](OC(=O)c2cc(OC)c(OC)c(OC)c2)[C@@H]1OC [RESERPINE] | – | > 30 µM | > 30 µM | > 10 µM | 26.5 µM | > 30 µM | 11.7 µM | > 10 µM | 13 µM | – | – | > 10 µM | –
23 | Clc1ccc(C(Cn2ccnc2)OCc2csc3c(Cl)cccc23)c(Cl)c1 (stereo not given) [SERTACONAZOLE] | > 30 µM | 1.78 µM | – | – | – | – | – | – | – | – | – | – | –
24 | CC(OCCN1CCCCCC1)(c1ccccc1)c1ccc(Cl)cc1 (stereo not given) [SETASTINE] | > 30 µM | 0.432 µM | – | – | – | – | – | – | – | – | – | – | –
25 | C[C@]12CCC(=O)C[C@@H]1CC[C@@H]1[C@@H]2CC[C@]2(C)[C@@H](O)CC[C@@H]12 [STANOLONE] | – | – | – | – | > 30 µM | > 30 µM | > 30 µM | > 30 µM | > 30 µM | – | > 30 µM | > 30 µM | –
26 | c1ccc2c(SC3=NCCN3)c[nH]c2c1 [TINAZOLINE] | > 30 µM | > 30 µM | – | – | – | – | – | – | – | – | – | – | –
27 | COc1ccc2c(C(=S)N(C)CC(=O)O)cccc2c1C(F)(F)F [TOLRESTAT] | > 30 µM | > 30 µM | – | – | – | – | – | – | – | – | – | – | –
